One may read the IC50 as the concentration at which inhibition is half-maximal.

Activity, viability and IC50 data for one molecule are collected here from ChEMBL document CHEMBL3132747, “Design and synthesis of a novel series of N,4-diphenylpyrimidin-2-amine derivatives as potent and selective PI3K inhibitors” (Medchemcomm, 2014).

Experiment [1] has as its system A549. Kind of experiment: Induction of apoptosis in human A549 cells assessed as late necrotic cells at 16 uM after 48 hrs using annexin V and propidium iodide staining by flow cytometry (reference value: 6.00 %). The experiment is classed as functional. A general note: A flow cytometer gives signals particle by particle.
Experiment [2] relates to A549. Kind of experiment: Induction of apoptosis in human A549 cells assessed as late apoptotic cells at 16 uM after 48 hrs using annexin V and propidium iodide staining by flow cytometry (reference value: 9.79 %). The experiment is classed as functional.
Experiment [3] has as its system A549. Nature of the experiment: Induction of apoptosis in human A549 cells assessed as apoptotic cells at 16 uM after 48 hrs using annexin V and propidium iodide staining by flow cytometry (reference value: 5.37 %). The experiment is classed as functional.
The test system of experiment [4] is A549. Nature of the experiment: Induction of apoptosis in human A549 cells assessed as viable cells at 16 uM after 48 hrs using annexin V and propidium iodide staining by flow cytometry (reference value: 78.8 %). In kind it is functional. Conditions: A549, 48 h, read-out: Activity.
Experiment [5] relates to A549. Kind of experiment: Induction of apoptosis in human A549 cells assessed as late necrotic cells at 4 uM after 48 hrs using annexin V and propidium iodide staining by flow cytometry (reference value: 6.00 %). The experiment is classed as functional.
Experiment [6] deals with A549. Nature of the experiment: Induction of apoptosis in human A549 cells assessed as late apoptotic cells at 4 uM after 48 hrs using annexin V and propidium iodide staining by flow cytometry (reference value: 9.79 %). In kind it is functional.
The test system of experiment [7] is A549. Nature of the experiment: Induction of apoptosis in human A549 cells assessed as apoptotic cells at 4 uM after 48 hrs using annexin V and propidium iodide staining by flow cytometry (reference value: 5.37 %). In kind it is functional.
Experiment [8] has as its system A549. Kind of experiment: Induction of apoptosis in human A549 cells assessed as viable cells at 4 uM after 48 hrs using annexin V and propidium iodide staining by flow cytometry (reference value: 78.8 %). The experiment is classed as functional. The following applies: A549, 48 h, read-out: Activity.
Experiment [9] concerns A549. Nature of the experiment: Induction of apoptosis in human A549 cells assessed as late necrotic cells at 1 uM after 48 hrs using annexin V and propidium iodide staining by flow cytometry (reference value: 6.00 %). In kind it is functional.
Experiment [10] deals with A549. Nature of the experiment: Induction of apoptosis in human A549 cells assessed as late apoptotic cells at 1 uM after 48 hrs using annexin V and propidium iodide staining by flow cytometry (reference value: 9.79 %). In kind it is functional.
Experiment [11] deals with A549. Nature of the experiment: Induction of apoptosis in human A549 cells assessed as apoptotic cells at 1 uM after 48 hrs using annexin V and propidium iodide staining by flow cytometry (reference value: 5.37 %). In kind it is functional.
The test system of experiment [12] is A549. Nature of the experiment: Induction of apoptosis in human A549 cells assessed as viable cells at 1 uM after 48 hrs using annexin V and propidium iodide staining by flow cytometry (reference value: 78.8 %). The following applies: A549, 48 h, read-out: Activity. In kind it is functional.
The target of experiment [13] is Tyrosine-protein kinase JAK2 (Homo sapiens, UniProt O60674). Kind of experiment: Inhibition of JAK2 (unknown origin).
Experiment [14] concerns the target Cyclin-dependent kinase 2 (Homo sapiens, UniProt P24941). Kind of experiment: Inhibition of CDK2 (unknown origin).
Experiment [15] deals with Epidermal growth factor receptor (Homo sapiens, UniProt P00533). Nature of the experiment: Inhibition of EGFR (unknown origin).
The subject of the next experiment is MCF7. Kind of experiment: Anticancer activity against human MCF7 cells by MTT assay. In kind it is functional, cell-based. For orientation: Tetrazolium dyes change colour on reduction, which living cells bring about.
In experiment [16] the test system is A549. Nature of the experiment: Anticancer activity against human A549 cells by MTT assay. The experiment is classed as functional, cell-based.
A further experiment has as its system HeLa. Nature of the experiment: Anticancer activity against human HeLa cells by MTT assay. The experiment is classed as functional, cell-based.
The subject of another experiment is HepG2. Nature of the experiment: Anticancer activity against human HepG2 cells by MTT assay. The experiment is classed as functional, cell-based.
Experiment [17] addresses Phosphatidylinositol 4,5-bisphosphate 3-kinase catalytic subunit beta isoform (Homo sapiens, UniProt P42338). Nature of the experiment: Inhibition of human PI3Kbeta.
The target in experiment [18] is Phosphatidylinositol 4,5-bisphosphate 3-kinase catalytic subunit alpha isoform (Homo sapiens, UniProt P42336). Kind of experiment: Inhibition of human PI3Kalpha.
The target of experiment [19] is Phosphatidylinositol 4,5-bisphosphate 3-kinase catalytic subunit gamma isoform (Homo sapiens, UniProt P48736). Kind of experiment: Inhibition of human PI3Kgamma. The following applies: read-out: IC50.

Phosphatidylinositol 4,5-bisphosphate 3-kinase catalytic subunit beta isoform, sequence (P42338 whole entry, canonical isoform): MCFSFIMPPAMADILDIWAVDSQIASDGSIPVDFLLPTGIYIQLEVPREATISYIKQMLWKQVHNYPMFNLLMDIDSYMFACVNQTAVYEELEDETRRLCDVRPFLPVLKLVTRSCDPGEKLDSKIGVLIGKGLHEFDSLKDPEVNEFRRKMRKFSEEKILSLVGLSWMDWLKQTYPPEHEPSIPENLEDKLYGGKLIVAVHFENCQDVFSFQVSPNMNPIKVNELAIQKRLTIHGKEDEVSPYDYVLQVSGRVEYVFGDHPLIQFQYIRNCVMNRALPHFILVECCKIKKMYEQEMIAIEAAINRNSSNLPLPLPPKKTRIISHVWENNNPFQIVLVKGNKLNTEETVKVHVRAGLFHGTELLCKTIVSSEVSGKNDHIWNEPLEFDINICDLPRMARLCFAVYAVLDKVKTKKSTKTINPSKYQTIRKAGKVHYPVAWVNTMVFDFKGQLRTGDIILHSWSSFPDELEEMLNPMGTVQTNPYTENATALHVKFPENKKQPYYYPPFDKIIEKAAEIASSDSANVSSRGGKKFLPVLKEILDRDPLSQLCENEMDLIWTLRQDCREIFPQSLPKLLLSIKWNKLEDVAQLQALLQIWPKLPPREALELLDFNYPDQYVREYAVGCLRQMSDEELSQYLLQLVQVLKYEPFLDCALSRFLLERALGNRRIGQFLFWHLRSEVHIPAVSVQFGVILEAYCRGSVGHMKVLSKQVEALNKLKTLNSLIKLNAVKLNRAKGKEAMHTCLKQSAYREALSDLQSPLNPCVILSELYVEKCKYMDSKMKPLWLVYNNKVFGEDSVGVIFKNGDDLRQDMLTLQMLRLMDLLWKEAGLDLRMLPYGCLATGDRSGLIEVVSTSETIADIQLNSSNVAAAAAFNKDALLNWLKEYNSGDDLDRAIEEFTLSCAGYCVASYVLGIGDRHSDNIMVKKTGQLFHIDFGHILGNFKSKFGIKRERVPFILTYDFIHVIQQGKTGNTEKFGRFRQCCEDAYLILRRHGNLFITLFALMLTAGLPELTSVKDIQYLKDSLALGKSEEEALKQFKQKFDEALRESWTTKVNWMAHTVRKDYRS
Phosphatidylinositol 4,5-bisphosphate 3-kinase catalytic subunit alpha isoform, sequence (P42336 whole entry, canonical isoform): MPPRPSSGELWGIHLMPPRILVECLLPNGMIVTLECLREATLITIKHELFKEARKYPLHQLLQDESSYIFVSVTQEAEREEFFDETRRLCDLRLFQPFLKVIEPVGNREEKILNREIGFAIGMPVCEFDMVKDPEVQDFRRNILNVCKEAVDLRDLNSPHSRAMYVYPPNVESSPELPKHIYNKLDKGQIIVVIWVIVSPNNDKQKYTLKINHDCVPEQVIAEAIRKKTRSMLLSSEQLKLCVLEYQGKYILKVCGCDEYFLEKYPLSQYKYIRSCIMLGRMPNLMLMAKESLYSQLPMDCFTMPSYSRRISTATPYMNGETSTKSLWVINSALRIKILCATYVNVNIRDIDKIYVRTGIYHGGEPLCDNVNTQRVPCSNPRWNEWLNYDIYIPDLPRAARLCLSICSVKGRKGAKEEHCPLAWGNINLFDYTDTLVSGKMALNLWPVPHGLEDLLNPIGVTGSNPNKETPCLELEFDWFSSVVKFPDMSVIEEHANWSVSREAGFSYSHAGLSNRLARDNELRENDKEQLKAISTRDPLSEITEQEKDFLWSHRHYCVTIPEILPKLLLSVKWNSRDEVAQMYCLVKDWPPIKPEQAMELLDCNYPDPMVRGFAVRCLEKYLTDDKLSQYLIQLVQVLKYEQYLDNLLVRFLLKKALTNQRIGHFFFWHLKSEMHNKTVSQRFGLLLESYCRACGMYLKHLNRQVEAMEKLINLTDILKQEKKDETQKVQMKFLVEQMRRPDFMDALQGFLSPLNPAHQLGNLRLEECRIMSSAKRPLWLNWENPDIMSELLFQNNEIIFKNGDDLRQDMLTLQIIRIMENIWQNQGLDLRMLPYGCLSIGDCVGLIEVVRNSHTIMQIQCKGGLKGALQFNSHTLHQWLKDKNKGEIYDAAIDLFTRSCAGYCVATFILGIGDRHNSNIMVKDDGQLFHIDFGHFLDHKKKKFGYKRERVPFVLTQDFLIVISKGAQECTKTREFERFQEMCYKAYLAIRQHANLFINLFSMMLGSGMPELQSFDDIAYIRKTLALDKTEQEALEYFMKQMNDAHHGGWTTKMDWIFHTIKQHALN
Epidermal growth factor receptor, sequence (P00533 whole entry): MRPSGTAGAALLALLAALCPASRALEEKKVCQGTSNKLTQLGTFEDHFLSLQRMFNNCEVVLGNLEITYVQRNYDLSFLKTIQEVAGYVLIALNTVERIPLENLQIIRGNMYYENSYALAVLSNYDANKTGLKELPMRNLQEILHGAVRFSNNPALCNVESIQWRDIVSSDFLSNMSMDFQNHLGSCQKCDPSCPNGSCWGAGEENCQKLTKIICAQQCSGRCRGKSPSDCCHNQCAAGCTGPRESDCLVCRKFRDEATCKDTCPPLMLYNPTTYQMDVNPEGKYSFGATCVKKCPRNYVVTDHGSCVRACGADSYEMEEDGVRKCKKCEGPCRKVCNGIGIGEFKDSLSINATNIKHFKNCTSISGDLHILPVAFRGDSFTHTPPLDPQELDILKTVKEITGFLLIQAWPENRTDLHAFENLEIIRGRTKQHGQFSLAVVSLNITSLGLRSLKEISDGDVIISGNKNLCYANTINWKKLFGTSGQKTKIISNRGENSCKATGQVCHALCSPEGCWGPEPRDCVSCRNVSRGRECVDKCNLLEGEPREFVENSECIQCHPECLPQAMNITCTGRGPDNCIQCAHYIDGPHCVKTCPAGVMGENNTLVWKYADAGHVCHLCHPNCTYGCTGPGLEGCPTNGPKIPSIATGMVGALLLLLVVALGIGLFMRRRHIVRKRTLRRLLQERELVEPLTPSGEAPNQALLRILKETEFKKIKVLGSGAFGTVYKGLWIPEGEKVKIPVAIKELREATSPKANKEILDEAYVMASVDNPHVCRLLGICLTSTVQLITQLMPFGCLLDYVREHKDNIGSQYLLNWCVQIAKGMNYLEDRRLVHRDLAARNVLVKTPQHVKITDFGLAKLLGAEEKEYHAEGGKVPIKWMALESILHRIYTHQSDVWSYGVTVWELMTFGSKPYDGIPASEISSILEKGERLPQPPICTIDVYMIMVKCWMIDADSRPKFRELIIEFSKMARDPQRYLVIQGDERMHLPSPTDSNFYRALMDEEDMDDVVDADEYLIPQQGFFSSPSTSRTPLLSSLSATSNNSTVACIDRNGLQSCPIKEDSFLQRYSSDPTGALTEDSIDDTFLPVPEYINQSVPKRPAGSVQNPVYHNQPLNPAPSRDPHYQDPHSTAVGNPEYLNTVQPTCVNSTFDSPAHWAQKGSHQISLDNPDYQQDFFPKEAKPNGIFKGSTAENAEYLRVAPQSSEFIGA
Tyrosine-protein kinase JAK2, sequence (O60674 whole entry): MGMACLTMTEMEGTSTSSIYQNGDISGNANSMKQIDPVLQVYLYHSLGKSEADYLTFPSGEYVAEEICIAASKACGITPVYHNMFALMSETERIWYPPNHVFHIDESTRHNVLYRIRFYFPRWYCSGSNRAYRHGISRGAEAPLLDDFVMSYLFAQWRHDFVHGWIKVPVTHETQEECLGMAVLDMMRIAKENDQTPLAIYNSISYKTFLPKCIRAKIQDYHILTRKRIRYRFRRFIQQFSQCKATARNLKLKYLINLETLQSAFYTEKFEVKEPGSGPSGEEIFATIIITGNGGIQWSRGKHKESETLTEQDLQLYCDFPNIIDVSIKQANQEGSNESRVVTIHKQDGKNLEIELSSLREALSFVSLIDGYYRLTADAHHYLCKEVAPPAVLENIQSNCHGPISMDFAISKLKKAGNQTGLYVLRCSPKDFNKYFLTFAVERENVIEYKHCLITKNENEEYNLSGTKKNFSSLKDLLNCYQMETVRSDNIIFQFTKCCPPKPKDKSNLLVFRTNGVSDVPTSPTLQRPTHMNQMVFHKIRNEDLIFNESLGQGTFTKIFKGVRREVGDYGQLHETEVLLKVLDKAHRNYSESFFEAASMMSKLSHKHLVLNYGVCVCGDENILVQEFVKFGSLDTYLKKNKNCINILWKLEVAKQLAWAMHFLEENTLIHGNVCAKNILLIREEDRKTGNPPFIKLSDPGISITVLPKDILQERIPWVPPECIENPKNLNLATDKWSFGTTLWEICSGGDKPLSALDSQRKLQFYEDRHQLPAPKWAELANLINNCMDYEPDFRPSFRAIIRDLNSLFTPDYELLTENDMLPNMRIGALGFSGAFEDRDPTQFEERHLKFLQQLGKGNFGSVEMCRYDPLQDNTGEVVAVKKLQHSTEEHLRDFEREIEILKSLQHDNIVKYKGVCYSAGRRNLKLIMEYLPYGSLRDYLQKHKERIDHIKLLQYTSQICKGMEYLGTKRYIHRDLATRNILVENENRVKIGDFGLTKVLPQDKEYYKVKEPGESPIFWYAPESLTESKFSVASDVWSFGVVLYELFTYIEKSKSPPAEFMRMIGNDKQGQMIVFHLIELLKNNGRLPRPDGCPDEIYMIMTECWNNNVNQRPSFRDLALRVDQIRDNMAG

With `COc1cc(Nc2nccc(-c3ccc(Cl)cc3)n2)cc(OC)c1OC`, the Activity in the experiment with A549 [1] worked out at 2.19%; with A549 [2], 39.4%; in the experiment on A549 [3], 13.5%; in the experiment with A549 [5] it was 4.62%; in the experiment on A549 [6], 32.8%; with A549 [7], 6.53%. For the same molecule, the Activity with A549 [9] turned out to be 3.66%; in the experiment with A549 [10] it was 25%; in the experiment on A549 [11] it was 8.47%. Also, in the experiment with A549 [4], the viability at 16 µM turned out to be 44.9%. Moreover, in the experiment on A549 [8], the viability at 4 µM is 56.1%. Besides, in the experiment on A549 [12], the viability at 1 µM was determined as 62.9%. The IC50 in [13] was 21.5 µM; in [14], 18.8 µM; in experiment [15], 2150 nM; with MCF7, 3.15 µM; with A549 [16] it was 360 nM; in the experiment with HeLa, 290 nM. Moreover, the IC50 in the experiment with HepG2 is 90 nM; in experiment [17] it was 373 nM; in [18], 341 nM; in [19] it was not above 65 nM.
